# PubChem BioAssay AID687029 (Broad Institute, 2013)
# Test system: RMG-1 viability, CellTiterGlo ATP luminescence, 96 h
# Test: RMG-1 ovarian cancer cell viability loss – cherry-pick, dose response (AID 687029)
row,Structure (SMILES),AC50 [nM]
1,C=C(C(=O)c1ccccc1)C(C(=C)C(=O)c1ccccc1)c1ccc(OC)cc1,< 260
2,C=C1C(=O)C2=CC1CCC(=O)C1(C)CCC(OC(C)=O)C(C)(C)C1CC2O (stereo not drawn),< 260
3,Cc1ccc2c(c1)c1c3n2CCN(CC(N)=O)C3CCC1 (stereo not drawn),12300
4,Nc1nc(=S)c2[nH]cnc2[nH]1,< 260
5,C=C(C)c1nc(Oc2ccccc2)nc(Oc2ccccc2)n1,< 260
6,CCOC(=O)c1c(C)[nH]c2c1-c1ccccc1C(=O)C2=O,< 260
7,Oc1cccc2cc(Nc3ccccc3)cnc12,< 260
8,COc1ccc(C(=O)NC(=S)NNC(=O)c2c(-c3ccccc3)noc2C)cc1,< 260
9,Cc1nc(Nc2nc(CSc3nc4ccccc4[nH]3)cc(=O)[nH]2)nc2ccccc12,< 260
10,Cc1nc2sc(C(c3ccco3)N3CCN(C(c4ccccc4)c4ccccc4)CC3)c(O)n2n1 (stereo not drawn),< 260
11,C#CCN(C[C@@H]1[C@@H](OC(=O)NCc2ccccc2F)[C@@H](OC(=O)NCc2ccccc2F)Cn2c(=O)ccc(=O)n21)S(=O)(=O)c1ccc(C)cc1,< 260
12,C[C@H](CO)N1C[C@H](C)[C@@H](CN(C)S(=O)(=O)c2ccc(Cl)cc2)OCCCC[C@H](C)Oc2ccc(NS(=O)(=O)c3ccc(Cl)cc3)cc2C1=O,< 260
13,C[C@@H]1CCCCO[C@H](CN(C)C(=O)C2CCCCC2)[C@@H](C)CN([C@@H](C)CO)C(=O)c2cc(NC(=O)Nc3ccc(F)cc3)ccc2O1,< 260
14,CCCn1c(C)cc(C(=O)CN2C(=O)c3ccccc3S2(=O)=O)c1C,< 260
15,O=S(=O)(NCC1CCCO1)c1cnc(Cl)c(Br)c1 (stereo not drawn),< 260
16,C#CCN(C[C@@H]1[C@@H](OC(=O)NCC2CCCCC2)[C@@H](OC(=O)NCC2CCCCC2)Cn2c(=O)ccc(=O)n21)S(=O)(=O)c1ccc(C)cc1,< 260
17,O=[N+]([O-])c1cccnc1S(=O)(=O)c1ccccc1,< 260
18,C[C@@H]1CCCCO[C@@H](CN(C)Cc2ccc(C(F)(F)F)cc2)[C@@H](C)CN([C@@H](C)CO)C(=O)c2cc(NS(=O)(=O)c3ccc(F)cc3)ccc2O1,35500
19,C=C(C)c1cccc(C(C)(C)NC(=O)N2CCN(c3ccccc3OC)CC2)c1,< 260
20,CC1CN(CC(O)COC(c2ccccc2)c2ccccc2)CC(C)O1 (stereo not drawn),< 260
21,CCc1cc(-c2n[nH]c(C)c2-c2nc3ccccc3n2C)c(O)cc1O,< 260
22,C[C@H]1CCCCO[C@H](CN(C)Cc2ccc(C(F)(F)F)cc2)[C@@H](C)CN([C@@H](C)CO)C(=O)c2cc(NS(=O)(=O)c3ccc(Cl)cc3)ccc2O1,< 260
23,C[C@H](CO)N1C[C@H](C)[C@H](CN(C)S(=O)(=O)c2ccc(Cl)cc2)OCCCC[C@H](C)Oc2ccc(NS(=O)(=O)c3ccc(F)cc3)cc2C1=O,< 260

row,Structure (SMILES),AC50 [nM]
1,FC(F)(F)c1nnc2c(Sc3ccccn3)nc3ccccc3n12,14200
2,Cc1ccc(C(=O)N/C(=C\c2ccc(-c3ccc(Br)cc3)o2)C(=O)NCCCN(C)C)cc1,12500
3,CCCCN=C[C@]12CCC(O)CC1(O)CCC1[C@@H]2CC[C@]2(C)[C@H](C3C=CC(=O)O3)CCC12O (stereo partly drawn),< 260
4,COc1cc(-c2cnc3c(NC=O)cc(-c4ccccc4)cn23)cc(OC)c1OC,< 260
5,CN1c2ccccc2N(C)C1(C)c1ccccc1,< 260
6,O=C(CCC(=O)c1ccccc1)NCCc1c[nH]c2ccccc12,< 260
7,CC1CC(C)(O)CC(C(O)CC2CC(=O)NC(=O)C2)C1=O (stereo not drawn),< 260
8,CC(C)c1cc(C(=O)OCC(=O)N2CCN(C(=O)c3ccco3)CC2)c(O)c(C(C)C)c1,< 260
9,Cc1cnc(NC(=O)c2ccc3c(c2)OCCO3)s1,< 260
10,N#Cc1ccc(-c2ccc(C3[C@@H]4CN(C(=O)C5CC5)C[C@H]3N4)cc2)cc1 (stereo partly drawn),< 260
11,CCN(CC(=O)Nc1c(F)cccc1F)C(=O)c1cc(S(=O)(=O)N(C)C)ccc1N1CCCC1,< 260
12,O=C(Nc1ccc(Cl)c(Cl)c1)N[C@@H]1CC[C@H](CCn2cc(C3CCCCC3)nn2)O[C@H]1CO,< 260
13,CCOc1ccc(-n2c(=S)sc3c(=O)[nH]c(SCC(=O)NCC4CCCO4)nc32)cc1 (stereo not drawn),< 260
14,O=C1CN(C(=O)Cn2ncc(Cl)c(Cl)c2=O)c2ccccc2N1,< 260
15,O=C(Nc1ccc(N2CCN(C(=O)c3ccccc3)CC2)cc1)c1ccc([N+](=O)[O-])o1,< 260
16,Cc1cc(C)c2c(N)c(C(=O)Nc3ncc(C)s3)sc2n1,1010
17,O=C(O)c1cccc(COc2ccc3c(c2)CCC3)c1,< 260
18,COc1ccc(/C=N/NC(=O)c2[nH]c3ccc(Br)cc3c2-c2ccccc2)cc1,< 260
19,O=c1cc(-c2ccccc2)oc2ccc3ccccc3c12,< 260
20,CCC(C)(O)C(=O)OC1C(=O)OC2CC3C(C)=CC(=O)C(O)C3(C)C3C4(O)OCC23C1C(C)C4O (stereo not drawn),19700
21,O=C(Nc1cccc(Cl)c1)Nc1nnc(-c2ccncc2)s1,< 260
22,COc1ccc(C)cc1NS(=O)(=O)c1ccc(-c2cnc(C3CC3)o2)cc1,376
23,COc1cc(C2C3=C(COC3=O)Oc3cc4c(cc32)OCO4)cc(OC)c1O (stereo not drawn),< 260

row,Structure (SMILES),AC50 [nM]
1,O=C(NC1CCCCC1)C(c1cccnc1)N(C(=O)CCl)c1ccc(F)cc1 (stereo not drawn),9950
2,COc1ccc(C(=O)c2ccc(Cl)c([N+](=O)[O-])c2)cc1,< 260
3,O=C(NCc1cc(C(F)(F)F)ccc1Cl)c1cccc2c1C(=O)c1ccc(N3CCC(N4CCCCC4)CC3)cc1S2(=O)=O,< 260
4,O=c1[nH]c2ccccc2n1C1CCN(C(c2cccs2)c2nnnn2-c2ccc3c(c2)OCCO3)CC1 (stereo not drawn),< 260
5,CCOC(=O)Nc1ccc2c(c1)N(C(=O)CCN(CC)CC)c1ccccc1S2=O (stereo not drawn),< 260
6,OCCCNc1nccc(-c2cc(Nc3cccc(Cl)c3)ncn2)n1,< 260
7,COc1ccc(S(=O)(=O)Nc2ccc3c(c2)C(=O)N([C@@H](C)CO)C[C@H](C)[C@@H](CN(C)Cc2ccc(C(F)(F)F)cc2)OCCCC[C@H](C)O3)cc1,372
8,Cc1cc(CN(C)C(=O)c2cc(COc3ccc4ncccc4c3)on2)on1,< 260
9,COc1ccc(NC(=O)Nc2ccc3c(c2)C(=O)N([C@@H](C)CO)C[C@@H](C)[C@@H](CN(C)CC2CCCCC2)OCCCC[C@@H](C)O3)cc1,< 260
10,Cc1ccc(S(=O)(=O)Nc2ccc3c(c2)CC(=O)N([C@H](C)CO)C[C@H](C)[C@H](CN(C)S(=O)(=O)c2ccc(F)cc2)O3)cc1,4300
11,CCCC1=Nc2cc(C(=O)NCCCOCC)ccc2Sc2ccccc21,< 260
12,COc1ccc(CCNc2nnc(Sc3nnnn3-c3ccccc3)s2)cc1OC,13000
13,O=C(Nc1ccc(OCC(F)(F)C(F)F)c(C(F)(F)F)c1)c1ccccc1O,< 260
14,O=C(NC12CC3CC(CC(C3)C1)C2)c1ccc([N+](=O)[O-])o1,< 260
15,O=C(C(=O)N(Cc1ccccc1)Cc1ccccc1)c1c(-c2ccccc2)[nH]c2ccccc12,< 260
16,Cc1cc(C2=NNC(=NC3CC3)SC2)c(C)n1-c1ccccc1F,< 260
17,O=C(Nc1cccc(-c2ccc(N3CCCCC3)nn2)c1)C(F)(F)F,< 260
18,C[C@H](CO)N1C[C@H](C)[C@H](CN(C)Cc2ccc(C(F)(F)F)cc2)OCCCC[C@H](C)Oc2ccc(NS(=O)(=O)c3ccccc3)cc2C1=O,927
19,COc1cccc(N2CCN(C(=O)c3ccc(CS(=O)c4ccccc4Cl)o3)CC2)c1 (stereo not drawn),< 260
20,C[C@@H]1O[C@@H](O[C@@H]2C=C3CC[C@@H]4C(CC[C@]5(C)[C@@H](c6ccc(=O)oc6)CC[C@]45O)[C@@]3(C)CC2)[C@H](O)[C@H](O)[C@H]1O (stereo partly drawn),< 260
21,Cc1cc(Nc2ccc3c(c2)OCCO3)c2ccccc2n1,< 260
22,CCC(=O)NC(c1ccc(C)cc1)c1ccc2cccnc2c1O (stereo not drawn),< 260
